Laboratory results published in US3933805A, “S(IV)-benzo-1,2,4-thiadiazine compounds and process for their preparation” (Biersdorf, Akteingesellschaft, priority 1973, dated 1976).
Values after ≈ are worked out from the molar mass of the structure shown.

What was measured:
[1] = system: pentobarbital sleep; test: Prolongation of pentobarbital sleep; type: in vivo; details: Mus musculus, po, mice, p.o., read-out: ED50, increase in sleeping (prolongation of pentobarbital sleep)
Source text: (§1) Central depressing effects in mice (ED50 in mg/kg p.o.)
(§2) Example spontaneous Increase in net^(3)
(2) Prolongation of pentobarbital sleep, R.A. Turner, Screening Methods i
Pharmacology, N.Y. 1965, p. 90.

[2] = system: spontaneous mobility; test: Decrease of spontaneous mobility; type: in vivo; details: Mus musculus, po; mice
Source text: as §1, §2
(1) Method described in R.A. Turner, Screening Methods in Pharmacology, […]

[3] = system: Minimum Electroshock Threshold; test: Minimum Electroshock Threshold (increase in net); type: in vivo; details: Mus musculus, po; mice
Source text: as §1, §2
(3) Minimum Electroshock Threshold, test arrangement according to Brown,
Schiffmann, Swinyard and Goodman; J.Pharmacol. Exptl. Ther. 107, 273

[4] = system: guinea pig small intestine; test: Spasmolytic effect on guinea pig small intestine in vitro against Acetylcholine; type: cell-based; details: Cavia porcellus, Acetylcholine 0.1 γ/ml, read-out: ED50, spasmolytic effect against Acetylcholine
Source text: (§3) Spasmolytic effect on guinea pig small intestine (1)
(§4) (1) R. Magnus, Pflugers Arch. ges. Physiol. 102, 123 (1904)

[5] = system: guinea pig small intestine; test: Spasmolytic effect on guinea pig small intestine in vitro against Barium chloride; type: cell-based; details: Cavia porcellus, Barium chloride 200 γ/ml, read-out: ED50, spasmolytic effect against Barium chloride
Source text: as §3, §4

[6] = system: guinea pig small intestine; test: Spasmolytic effect on guinea pig small intestine in vitro against Histamine; type: cell-based; details: Cavia porcellus, Histamine 0.1 γ/ml, read-out: ED50, spasmolytic effect against Histamine
Source text: as §3, §4

For `CCCN(CCC)CC1=Nc2ccc(Cl)cc2S(=O)(c2ccccc2)=N1` (stereo not drawn) [Example 1, 7-Chloro-3-di-(n-propyl)aminomethyl-1-phenyl-benzo-1,2,4-thiadiazine-1 oxide], the ED50 [1] was 22 mg/kg, the ED50 [2] was 98 mg/kg and the ED50 [3] was 38 mg/kg.
In the case of `CCCN(CCC)CC1=Nc2ccccc2S(=O)(c2ccc(N)cc2)=N1` (stereo not drawn) [Example 2, 3-Di-(n-propyl)-aminomethyl-1-(4'-aminophenyl)-benzo-1,2,4-thiadiazine-1-oxide], the ED50 [1] was 8 mg/kg and the ED50 [2] was over 250 mg/kg.
`O=S1(c2ccccc2)=NC(CN2CCCCC2)=Nc2ccc(Cl)cc21` (stereo not drawn) [Example 3] was tested, and the IC50 [4] was 0.9 mg/L (≈ 2.41 µM), the ED50 [1] was 34 mg/kg and the ED50 [2] was 84 mg/kg. For the same molecule, the IC50 [5] was 1.7 mg/L (≈ 4.55 µM) and the ED50 [3] was 34 mg/kg.
`CCN(CC)CC1=Nc2ccc(Cl)cc2S(=O)(c2ccccc2)=N1` (stereo not drawn) [Example 4] showed an ED50 [1] of 46 mg/kg, an ED50 [2] of 78 mg/kg and an ED50 [3] of 28 mg/kg.
`O=S1(c2ccccc2)=NC(CN2CCOCC2)=Nc2ccc(Cl)cc21` (stereo not drawn) [Example 5] gave an ED50 [1] of 46 mg/kg, an ED50 [2] of over 250 mg/kg and an ED50 [3] of 92 mg/kg.
For `O=S1(c2ccccc2)=NC(CN2CCCC2)=Nc2ccc(Cl)cc21` (stereo not drawn) [Example 6], the ED50 [1] was 38 mg/kg, the ED50 [2] was 70 mg/kg and the ED50 [3] was 68 mg/kg.
For `O=S1(c2ccccc2)=NC(CNCCO)=Nc2ccc(Cl)cc21` (stereo not drawn) [Example 7], the ED50 [1] was 15 mg/kg, the ED50 [2] was 23 mg/kg and the ED50 [3] was 126 mg/kg.
`CN(C)CC1=Nc2ccc(Cl)cc2S(=O)(c2ccccc2)=N1` (stereo not drawn) [Example 8] was tested, and the ED50 [1] was 16 mg/kg, the ED50 [2] was 96 mg/kg and the ED50 [3] was 46 mg/kg.
Molecule `COCCNCC1=Nc2ccc(Cl)cc2S(=O)(c2ccccc2)=N1` (stereo not drawn) [Example 9] has an ED50 [1] of 58 mg/kg, an ED50 [2] of over 250 mg/kg and an ED50 [3] of 32 mg/kg.
Molecule `CCNCC1=Nc2ccc(Cl)cc2S(=O)(c2ccccc2)=N1` (stereo not drawn) [Example 13] has an ED50 [1] of 25 mg/kg, an ED50 [2] of 240 mg/kg and an ED50 [3] of 42 mg/kg.
In the case of `COCCN(C)CC1=Nc2ccc(Cl)cc2S(=O)(c2ccccc2)=N1` (stereo not drawn) [Example 14], the ED50 [1] was 28 mg/kg, the ED50 [2] was over 250 mg/kg and the ED50 [3] was 46 mg/kg.
`CCCN(CCC)CC1=Nc2cc(C)ccc2S(=O)(c2ccccc2)=N1` (stereo not drawn) [Example 15] gave an IC50 [6] of 0.96 mg/L (≈ 2.6 µM), an IC50 [4] of 2.7 mg/L (≈ 7.31 µM) and an ED50 [1] of 8.5 mg/kg. For the same molecule, the ED50 [2] was 76 mg/kg, the IC50 [5] was 2.2 mg/L (≈ 5.95 µM) and the ED50 [3] was over 500 mg/kg.
Molecule `CCCN(CCC)CC1=Nc2ccccc2S(=O)(c2ccccc2)=N1` (stereo not drawn) [Example 18] has an IC50 [4] of 4 mg/L (≈ 11.3 µM), an ED50 [1] of 3.1 mg/kg and an ED50 [2] of 186 mg/kg. The IC50 [5] was 1.2 mg/L (≈ 3.38 µM) and the ED50 [3] was 134 mg/kg.
Work on `O=S1(c2ccccc2)=NC(CNCCO)=Nc2ccccc21` (stereo not drawn) [Example 19] yielded an ED50 [1] of 2 mg/kg, an ED50 [2] of over 250 mg/kg and an ED50 [3] of over 500 mg/kg.
In the case of `CCCN(CCC)CC1=Nc2ccccc2S(=O)(c2ccc(Cl)cc2)=N1` (stereo not drawn) [Example 20], the IC50 [4] was 2.6 mg/L (≈ 6.67 µM), the ED50 [1] was 2 mg/kg and the ED50 [2] was 31 mg/kg. The ED50 [3] was over 250 mg/kg.
`O=S1(c2ccc(Cl)cc2)=NC(CNCCO)=Nc2ccccc21` (stereo not drawn) [Example 21] was tested, and the ED50 [1] was 9 mg/kg and the ED50 [2] was 46 mg/kg.
`CCCN(CCC)CC1=Nc2ccc(Cl)cc2S(=O)(c2ccc(Cl)cc2)=N1` (stereo not drawn) [Example 22] showed an IC50 [4] of 2.2 mg/L (≈ 5.18 µM), an ED50 [1] of 16 mg/kg and an ED50 [2] of 28 mg/kg. The IC50 [5] was 0.72 mg/L (≈ 1.7 µM).
`CCCN(CCC)CC1=Nc2ccc(Cl)cc2S(=O)(c2cccc(C)c2)=N1` (stereo not drawn) [Example 23] showed an IC50 [6] of 0.08 mg/L (≈ 0.198 µM), an IC50 [4] of 1.1 mg/L (≈ 2.72 µM) and an IC50 [5] of 0.9 mg/L (≈ 2.23 µM).
`CCCN(CCC)CC1=Nc2cccc(Cl)c2S(=O)(c2ccc(Cl)cc2)=N1` (stereo not drawn) [Example 24] gave an IC50 [6] of 0.04 mg/L (≈ 0.0943 µM), an IC50 [4] of 2.2 mg/L (≈ 5.18 µM) and an ED50 [1] of 20 mg/kg. The ED50 [2] was 16 mg/kg, the IC50 [5] was 0.72 mg/L (≈ 1.7 µM) and the ED50 [3] was 115 mg/kg.
For `CCCN(CCC)CC1=Nc2ccc(C)cc2S(=O)(c2ccc(Cl)cc2)=N1` (stereo not drawn) [Example 25], the IC50 [4] was 0.69 mg/L (≈ 1.71 µM), the ED50 [1] was over 250 mg/kg and the ED50 [2] was 31 mg/kg. It also gave an IC50 [5] of 0.69 mg/L (≈ 1.71 µM) and an ED50 [3] of 21 mg/kg.
